# Laboratory results as given in US20220168295A1, “RIMEGEPANT FOR CGRP RELATED DISORDERS” (Biohaven Pharmaceutical Ireland DAC, priority 2018, published 2022).
# Tests used:
# [1] = tested on: subjects with Acute Migraines; experiment: Study 303 (BHV3000-303) Phase 3 placebo-controlled trial, rimegepant 75 mg ODT, acute treatment of migraine: efficacy and safety; assay type: in vivo, human
# Description: Clinical Trial—BHV3000-303: Phase 3: Double-Blind, Randomized, Placebo-Controlled, Safety and Efficacy Trial of BHV-3000 (Rimegepant) Orally Discintegrating Tablet (ODT) for the Acute Treatment of Migraine (ClinicalTrials.gov Identifier: NCT03461757) A phase 3 clinical study was conducted with 1812 participants, as follows. […] Pain freedom of rimegepant compared with placebo in the acute treatment of migraine will be measured using the number of evaluable subjects that report no pain at 2 hours post-dose. […] Pain will be measured on a 4 point Likert scale (0=none, 1=mild, 2=moderate, 3=severe) 2. Freedom from the most bothersome symptom (MBS) of rimegepant compared with placebo will be measured using the number of evaluable subjects that report the absence of their MBS at 2 hours post-dose. […] The MBS (nausea, phonophobia or photophobia) will measured using a binary scale (0=absent, 1=present). […] Pain Relief as measured by a 4 point numeric rating scale (None, Mild, Moderate, Severe) 2. […] Sustained Pain Relief as measured by a 4 point numeric rating scale (None, Mild, Moderate, Severe) 4. […] To measure rimegepant compared to placebo on the probability of requiring rescue medication will be assessed using the number of subjects that take rescue medication within […] administration of study medication (BHV3000 or placebo). […]
# [2] = Pooled adverse event and LFT safety data, Studies 301, 302 and 303; assay type: in vivo, human; set-up: ALT or AST >10x ULN / ALT or AST >20x ULN: unit not given here; details: pooled Studies 301, 302 and 303, n = 1,771
smiles,measurement,setting,value
"N[C@@H]1c2cccnc2[C@H](OC(=O)N2CCC(n3c(=O)[nH]c4ncccc43)CC2)CC[C@H]1c1cccc(F)c1F [Rimegepant, [(5S,6S,9R)-5-amino-6-(2,3-difluorophenyl)-6,7,8,9-tetrahydro-5H-cyclohepta[b]pyridin-9-yl] 4-(2-oxo-3H-imidazo[4,5-b]pyridin-1-yl)piperidine-1-carboxylate]",Patients with LFTs >3xULN,[1],one
same,"ALT or AST >3x ULN, n (%)",[2],2 (0.1%) n (%)
same,ALT or AST >10x ULN,[2],0
same,ALT or AST >20x ULN,[2],0
same,"ALT or AST >ULN, n (%)",[2],48 (2.7%) n (%)
same,"ALT or AST >5x ULN, n (%)","[2]; AST elevation, not drug-related per investigator",1 (0.06%) ^2 n (%)
